Test results taken from patent US9956205B2, “Polymorphic forms of 2-(5-bromo-4-(4-cyclopropylnaphthalen-1-yl)-4H-1,2,4-triazol-3-ylthio)acetic acid and uses thereof” (Ardea Biosciences, Inc., priority 2010, dated 2018).
Converted amounts (≈) assume the structure as drawn.

Legend:
Type in all cases: physicochemical
[1] = Gravimetric vapor sorption (GVS) study; settings: at high humidity
Description: FIG. 12 illustrates a GVS study of form 1 and form 2. […] This property of decreased hygroscopicity greatly aids in the preparation of solid pharmaceutical dosage forms.

[2] = Solubility in acetate buffer (25 mM, pH 5), assayed by HPLC; settings: 25 °C, pH 5, aqueous buffer, thermodynamic from solid; for solubility at 5 day: Day 5; for solubility at 7 day: Day 7
Procedure: (§1) Form 1 (˜25 mg) and acetate buffer (25 mM, pH 5, 4 mL), prepared with and without sodium chloride (ionic strength adjusted to=0.1M), were placed in a glass vial which was sealed and placed on a laboratory rotator in a 25° C. incubator. After 1, 5, and 7 days the samples were filtered and assayed by HPLC.
as §1, with “Form 2” for “Form 1”

[3] = Solid held in equilibrium with its saturated solvent solution at 60° C.; settings: saturated acetone solution, 6 days
[4] = Drug substance stability of packaged solid; settings: 1 month, double LDPE bags inside HDPE container
Procedure: Form 2 of 2-(5-bromo-4-(4-cyclopropylnaphthalen-1-yl)-4H-1,2,4-triazol-3-ylthio)acetate was tested under various conditions to determine drug substance stability. […] Packaging was in a double low density polyethylene plastic bags inside a HDPE container.

| adsorption (hygroscopicity) by GVS [1] [% w/w] | solubility at 5 day ([2]; pH 5, NaCl (I = 0.1)) [µg/mL] | solubility at 7 day ([2]; pH 5, NaCl (I = 0.1)) [µg/mL] | solubility at 1 day ([2]; pH 5, No NaCl, Day 1) [µg/mL] | solubility at 5 day ([2]; pH 5, No NaCl) [µg/mL] | solubility at 7 day ([2]; pH 5, No NaCl) [µg/mL] | outcome of equilibration with saturated solution [3] | degradation of packaged drug substance ([4]; 25° C.-60% RH) | degradation of packaged drug substance ([4]; 40° C.-75% RH) | Compound |
| --- | --- | --- | --- | --- | --- | --- | --- | --- | --- |
| < 0.2 | 257 (≈ 635 µM) | 304 (≈ 753 µM) | 265 (≈ 656 µM) | 213 (≈ 528 µM) | 157 (≈ 388 µM) | decomposition |  |  | O=C(O)CSc1nnc(Br)n1-c1ccc(C2CC2)c2ccccc12 [Form 1, 2-(5-bromo-4-(4-cyclopropylnaphthalen-1-yl)-4H-1,2,4-triazol-3-ylthio)acetic acid] |
| < 0.1 |  |  |  |  |  |  | No degradation | No degradation | O=C(O)CSc1nnc(Br)n1-c1ccc(C2CC2)c2ccccc12 [Form 2, 2-(5-bromo-4-(4-cyclopropylnaphthalen-1-yl)-4H-1,2,4-triazol-3-ylthio)acetic acid] |
